# Patent US20250249056A1, “CANCER THERAPIES COMPRISING A NUCLEAR EXPORT INHIBITOR AND AN ONCOLYTIC VIRUS” (priority 2022, published 2025)
# Legend:
# MYXV [1] = experiment: Viral replication assay: progeny virus titration on permissive rabbit RK13 cells; format: cell-based, myxoma virus; settings: PANC-1 and HT29 cells; LMB 0.001-0.1 μM
# Experimental: Viral titers in different human cancer cell lines were determined using a viral replication assay. Cells were seeded in 24-well plates (2×10^5 cells/well). The next day, the cells were treated with different concentrations of leptomycin B (LMB) or selinexor diluted in DMEM for 1 hour. MYXV was added to the cells and incubated for one hour at 37° C. After 1 hour, the unbound viruses were washed away using DMEM, and DMEM with LMB or selinexor was added to the cells. Cells were harvested in DMEM without LMB or selinexor at the indicated time points. After harvesting the cells, they were stored at −80° C. until processing. Samples were subjected to three freeze/thaw cycles and one-minute sonification to lyse cells and release the viral particles. Afterwards, different dilutions were prepared in DMEM and plated on rabbit RK13 and foci were counted after 48 hours using a fluorescent microscope. All assays and dilutions were performed in triplicate.
# MYXV [2] = experiment: MYXV reporter gene expression (GFP/TdTomato) and foci by fluorescence microscopy in human cancer cell lines; settings: PANC-1 and HT29 cells; pretreatment with LMB 0.001-0.1 μM; vMyx-GFP-TdTomato
# DHX9 = experiment: Immunofluorescence staining of DHX9 localization / antiviral granules in MYXV-infected A549 cells; format: cell-based, human
# Experimental: Immunofluorescence: Cells (5×10^5-1×10^6/dish) were seeded onto glass bottom 35 mm petri dishes overnight. Depending on the experiment, the next day, cells were transfected with siRNA for 48 hours or treated with a nuclear export inhibitor, MYXV, or a combination of both. At different time points after treatment, the cells were washed with PBS three times, fixed with 2% paraformaldehyde in PBS for 12 minutes at room temperature, washed with PBS three times, and permeabilized in 0.1% Triton™ X-100 in PBS for 90 seconds at room temperature. Fixed cells were washed with PBS three times and then blocked with 3% BSA in PBS for 30 minutes at 37° C., incubated with primary antibody (1:300 dilution) for 30 minutes at 37° C., washed with PBS six times, and incubated with secondary antibodies conjugated to different Alexa Fluor. After washing again with PBS six times, samples were mounted on glass slides with Vecta Shield (Vectorlabs) containing DAPI (4′,6′-diamidino-2-phenylindole) to stain DNA in the nuclei […]. Images were captured using a fluorescence microscope (Leica).
smiles,measurement,setting,value
"CCC(=C/[C@H](C)C/C=C/C(C)=C/[C@@H](C)C(=O)[C@@H](C)[C@H](O)[C@@H](C)C/C(C)=C/C(=O)O)/C=C/[C@@H]1OC(=O)C=C[C@@H]1C [LMB, leptomycin B]",viral production measured by titration assay,MYXV [1],significantly enhanced viral production
same,viral gene expression (early/late GFP and late TdTomato reporter protein expression),MYXV [2],enhanced viral gene expression
same,formation of DHX9 antiviral granules in the cytoplasm,"DHX9; A549 cells infected with vMyx-GFP, 24 h",blocked the formation of antiviral granules
same,cells in which DHX9 remained in the nucleus,"DHX9; A549 cells, LMB 1 h then vMyx-GFP MOI=1, 24 h",> 80%
